From the supplement of paper PMC10307832

What was measured:
Assay in all cases: relative viability (nuclei count vs DMSO), 5 days (fraction); higher = more cells survive
RU-SKI 43 + Olaparib = compound: CC[C@@H](C)CNCC(=O)N1CCC2=C([C@@H]1COC3=CC=CC(=C3)C)C=CS2 [RU-SKI 43] + O=C(c1cc(Cc2n[nH]c(=O)c3ccccc23)ccc1F)N1CCN(C(=O)C2CC2)CC1 [Olaparib] (partner 8 µM)
Outline: (§1)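 Lung cancer cell lines, seeded in 1536-well plates, were treated the following day by pin tool with a single drug or with five library-drug doses (not always all listed) in √10 steps on top of a fixed anchor-drug dose. Cells were fixed and nuclei stained in one step after 5 days, and nuclei were counted. Relative viability is the nuclei count for treated wells divided by that for vehicle wells, reported as medians of duplicate plates.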

Irinotecan + Dasatinib = compound: CCc1c2c(nc3ccc(OC(=O)N4CCC(N5CCCCC5)CC4)cc13)-c1cc3c(c(=O)n1C2)COC(=O)[C@]3(O)CC [Irinotecan] + Cc1nc(Nc2ncc(C(=O)Nc3c(C)cccc3Cl)s2)cc(N2CCN(CCO)CC2)n1 [Dasatinib] (partner 0.075 µM)
Outline: as §1

Irinotecan + AZD7762 = compound: CCc1c2c(nc3ccc(OC(=O)N4CCC(N5CCCCC5)CC4)cc13)-c1cc3c(c(=O)n1C2)COC(=O)[C@]3(O)CC [Irinotecan] + NC(=O)Nc1cc(-c2cccc(F)c2)sc1C(=O)N[C@H]1CCCNC1 [AZD7762] (partner 0.2 µM)
Outline: as §1

Irinotecan + Pictilisib = compound: CCc1c2c(nc3ccc(OC(=O)N4CCC(N5CCCCC5)CC4)cc13)-c1cc3c(c(=O)n1C2)COC(=O)[C@]3(O)CC [Irinotecan] + CS(=O)(=O)N1CCN(Cc2cc3nc(-c4cccc5[nH]ncc45)nc(N4CCOCC4)c3s2)CC1 [Pictilisib] (partner 1 µM)
Outline: as §1

| Cell Line | relative viability (RU-SKI 43 + Olaparib; first compound 0.1 µM) | relative viability (RU-SKI 43 + Olaparib; first compound 0.3162 µM) | relative viability (RU-SKI 43 + Olaparib; first compound 1 µM) | relative viability (RU-SKI 43 + Olaparib; first compound 3.162 µM) | relative viability (RU-SKI 43 + Olaparib; first compound 10 µM) | relative viability (Irinotecan + Dasatinib; first compound 2 µM) | relative viability (Irinotecan + Dasatinib; first compound 6.325 µM) | relative viability (Irinotecan + Dasatinib; first compound 20 µM) | relative viability (Irinotecan + AZD7762; first compound 2 µM) | relative viability (Irinotecan + AZD7762; first compound 6.325 µM) | relative viability (Irinotecan + AZD7762; first compound 20 µM) | relative viability (Irinotecan + Pictilisib; first compound 0.6325 µM) | relative viability (Irinotecan + Pictilisib; first compound 2 µM) | relative viability (Irinotecan + Pictilisib; first compound 6.325 µM) | relative viability (Irinotecan + Pictilisib; first compound 20 µM) | relative viability (Irinotecan + Dasatinib; first compound 0.6325 µM) | relative viability (Irinotecan + AZD7762; first compound 0.6325 µM) |
| --- | --- | --- | --- | --- | --- | --- | --- | --- | --- | --- | --- | --- | --- | --- | --- | --- | --- |
| NCI-H1734 | 0.559 | 0.661 | 0.656 | 0.589 | 0.591 | 0.385 | 0.218 | 0.155 | 0.399 | 0.185 | 0.139 | 0.298 | 0.446 | 0.16 | 0.184 |  |  |
| NCI-H1755 | 0.835 | 0.975 | 0.99 | 0.923 | 0.908 | 0.45 | 0.308 | 0.271 | 0.47 | 0.345 | 0.327 | 0.249 | 0.382 | 0.224 | 0.361 | 0.373 | 0.53 |
| NCI-H1792 | 0.301 | 0.472 | 0.474 | 0.385 | 0.281 | 0.747 | 0.506 | 0.192 | 0.502 | 0.169 | 0.274 | 0.281 | 0.199 | 0.106 | 0.11 | 0.803 | 0.241 |
| NCI-H1793 | 0.744 | 0.558 | 1.02 | 0.833 | 0.719 | 0.385 | 0.252 | 0.234 | 0.387 | 0.232 | 0.217 |  | 0.259 | 0.189 | 0.29 |  |  |
| NCI-H1915 | 0.266 | 0.288 | 0.25 | 0.261 | 0.251 | 0.221 | 0.132 | 0.128 | 0.346 | 0.165 | 0.127 | 0.341 | 0.261 | 0.185 | 0.195 | 0.215 | 0.387 |
| NCI-H1944 | 0.391 | 0.417 | 0.413 | 0.433 | 0.386 | 0.189 | 0.121 | 0.107 | 0.276 | 0.21 | 0.153 | 0.235 | 0.251 | 0.181 | 0.214 | 0.151 | 0.414 |
| NCI-H1975 | 0.752 | 1 | 0.892 | 0.729 | 0.767 | 0.469 | 0.305 | 0.155 | 0.7 | 0.527 | 0.322 | 0.339 | 0.316 | 0.204 | 0.154 | 0.28 | 0.826 |
| NCI-H1993 | 1.12 | 1.22 | 1.16 | 0.948 | 0.942 | 0.601 | 0.484 | 0.603 | 0.681 | 0.508 | 0.603 | 0.695 | 0.816 | 0.628 | 0.443 | 0.549 |  |
| NCI-H2085 | 0.765 | 0.681 | 0.717 | 0.741 | 0.785 | 0.23 | 0.266 | 0.273 | 0.942 | 0.957 | 0.672 | 0.453 | 0.403 | 0.313 | 0.307 | 0.221 | 0.771 |
